Our source for the TGI values is PubChem BioAssay (NCI).

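In this assay, cells in 96-well plates receive the compound at five concentrations for 48 hours. Endpoints are linearly interpolated between the surrounding concentrations. The concentration for full growth arrest is given as TGI.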

Common to all, as to experiment: NCI anticancer screen, dose series, 48 h
The test system of assay [1] is MOLT-4 leukemia.
Assay [2] relates to SW-620 colon.
In assay [3] the test system is M14 melanoma.
Assay [4] concerns HCC-2998 colon.
Assay [5] concerns MALME-3M melanoma.
In assay [6] the test system is OVCAR-5 ovarian.
Assay [7] has as its system T-47D breast.
Assay [8] concerns MCF7 breast.
The subject of assay [9] is KM12 colon.
In assay [10] the test system is BT-549 breast.
Assay [11] concerns SK-MEL-28 melanoma.
Assay [12] relates to RXF 393 renal.
The test system of assay [13] is CAKI-1 renal.
Assay [14] deals with CCRF-CEM leukemia.
The subject of assay [15] is DU-145 prostate.
Assay [16] has as its system NCI-H226 lung.
The test system of assay [17] is OVCAR-8 ovarian.
Assay [18] relates to ACHN renal.
Assay [19] deals with HS 578T breast.
Assay [20] has as its system SNB-78 CNS.

`N#CC(C#N)=C1SC(=Nc2ccccc2)C(=Nc2ccccc2)N1c1ccccc1`: the TGI in assay [1] is 11.8 µM; in assay [2], 11.5 µM; in assay [3], 54.7 µM; in [4], above 72 µM; in assay [5], 67.6 µM; in assay [6], 47.3 µM. Also, the TGI was 18 µM in [7]; above 58.7 µM in assay [8]; above 53.8 µM in assay [9]; 21.5 µM in assay [10]; above 58 µM in assay [11]; 45.5 µM in assay [12]. Also, the TGI is above 56.3 µM in [13]; 6.35 µM in assay [14]; above 100 µM in [15]; 44.7 µM in assay [16]; 65.9 µM in [17]; 71.3 µM in [18]. Further, the TGI in [19] is above 93 µM.

For `COC(=O)/C=C\C(C#N)(C#N)N=Cc1ccc(C)cc1`, the TGI in assay [1] is 3.77 µM; in [2] it was above 27.9 µM; in [3], 4.42 µM; in [4], 35.3 µM; in assay [5], 5.5 µM; in assay [6], 37.8 µM. The TGI in assay [7] was 4.61 µM; in assay [8], 3.68 µM; in [9], 35.3 µM; in assay [10], 11.2 µM; in assay [11], 19.8 µM; in assay [12], 3.9 µM. For the same molecule, the TGI in assay [13] was 6.53 µM; in [14], 2.1 µM; in assay [15] it was 15.7 µM; in assay [16] it was 21.5 µM; in assay [17], 6.12 µM; in assay [18], 6.04 µM. For the same molecule, in assay [19], the TGI was determined as 45.3 µM.

Take `O=C1OC(C2Cc3ccc4ccccc4c3C2=O)c2ccccc21` (configuration not stated): the TGI in assay [1], in [2], in assay [3], in assay [4], in assay [5] and in [6] was above 100 µM throughout. Besides, the TGI in assay [7] is above 100 µM; in [8], above 100 µM; in assay [9] it was above 100 µM; in [10] it was above 100 µM; in [11], above 100 µM; in assay [12], 49.5 µM. Also, the TGI in [13] is above 100 µM; in assay [14], above 100 µM; in assay [15], above 100 µM; in assay [16], 49.7 µM; in [17] it was above 100 µM; in assay [18], above 100 µM. The molecule also came in with a TGI in assay [19] of 88.9 µM.

Take `NCCCN1c2ccccc2Sc2ccc(Cl)cc21`: the TGI in assay [1] was above 10 µM; in assay [2], above 7 µM; in assay [3], 3.21 µM; in assay [4] it was 4.2 µM; in [5], above 10 µM; in assay [6], above 9.34 µM. For the same molecule, the TGI in [7] was above 9.08 µM; in assay [8], 3.21 µM; in assay [9], above 6.37 µM; in assay [10] it was above 10 µM; in assay [11], above 10 µM; in assay [12], above 10 µM. Further, the TGI in [13], in assay [14], in assay [15], in [16], in assay [17] and in assay [18] was above 10 µM each time. Further, the TGI in assay [19] was above 10 µM.

Consider `Clc1ccc(-c2nnc3sc4nc5ccccc5c-4nn23)c(Cl)c1`, for which the TGI in assay [1], in assay [2], in [3], in assay [4], in assay [5] and in assay [6] was above 100 µM each time. Also, the TGI in assay [7] is above 100 µM; in [8], above 100 µM; in [9], above 100 µM; in assay [10], 93.8 µM; in assay [11] it was above 100 µM; in assay [12], above 100 µM. For the same molecule, the TGI in assay [13], in assay [14], in assay [15], in [16], in assay [17] and in assay [18] was above 100 µM throughout. The molecule further had a TGI in [19] above 100 µM.

As to `O=[N+]([O-])C(=C(Nc1ccccc1)Nc1ccccc1)C(Cl)=C(Cl)Cl`, the TGI in assay [1] is 1.09 µM; in assay [2] it was 30.9 µM; in [3], 36.1 µM; in [4] it was 37.9 µM; in assay [5] it was 41.9 µM; in assay [6], 41.8 µM. Further, the TGI in [7] is 50.9 µM; in [8], 34.4 µM; in assay [9], above 55.5 µM; in assay [10], 29.6 µM; in [11] it was 35.7 µM; in assay [12] it was 31.8 µM. Further, the TGI was 33.4 µM in assay [13]; 28.1 µM in assay [14]; 34.5 µM in assay [15]; 40.4 µM in assay [16]; 48.5 µM in assay [17]; 30.7 µM in assay [18]. In assay [19], this molecule returned a TGI of 55.5 µM.

Turning to `CCOS(C)(=O)=O`, the TGI in assay [1], in [2], in assay [3], in assay [4], in [5] and in [6] was above 100 µM in each case. The TGI in assay [7], in [8], in [9], in [10], in assay [11] and in assay [12] was above 100 µM each time. Moreover, the TGI in [13], in [14], in assay [15], in [16], in [17] and in assay [18] was above 100 µM in each case. For the same molecule, in [19], the TGI is above 100 µM.

In the case of `Cc1c2n(c(=O)[nH]c1=O)C1OC(CO)C(N=[N+]=[N-])C1O2` (configuration not stated), the TGI in assay [1], in assay [2], in assay [9], in assay [11], in assay [12] and in assay [13] was above 100 µM each time. Besides, the TGI in assay [14], in [16], in assay [17], in assay [18] and in [20] was above 100 µM each time.

`CC(=NNC(=S)Nc1ccccc1)c1cccc(C(C)=NNC(=S)Nc2ccccc2)n1`: the TGI in assay [1] was above 30.1 µM; in [2] it was above 100 µM; in assay [3], 21.2 µM; in [4], above 100 µM; in [5], 52.5 µM; in [6] it was above 100 µM. Further, the TGI in assay [7] was above 100 µM; in [8], above 30.7 µM; in assay [9], above 100 µM; in assay [10], above 100 µM; in [11] it was above 100 µM; in assay [12] it was 36.6 µM. The TGI is above 22.9 µM in assay [13]; above 100 µM in assay [14]; above 100 µM in assay [15]; above 44 µM in [16]; above 50.2 µM in assay [17]; 6.86 µM in assay [18]. This molecule gave a TGI in [19] above 100 µM.

`COc1ccc(N2C(=O)CC(=O)N(NC(=O)C(C)Oc3ccccc3C)C2=S)cc1` (configuration not stated): the TGI in assay [1], in assay [2], in assay [3], in [4], in assay [5] and in assay [6] was above 100 µM each time. Besides, the TGI in assay [7], in [8], in assay [9], in assay [10], in [11] and in [12] was above 100 µM each time. Further, the TGI in [13], in assay [14], in [15], in assay [16], in assay [17] and in [18] was above 100 µM in each case. This molecule displayed a TGI in [19] above 100 µM.

For `CCNC(=S)NNC(=O)C12CC3CC(CC(C3)C1)C2`, the TGI in assay [1], in assay [2], in assay [3], in [4], in assay [5] and in assay [6] was above 100 µM in each case. Further, the TGI in assay [7], in assay [8], in assay [9], in assay [10], in assay [11] and in [12] was above 100 µM each time. For the same molecule, the TGI in [13], in assay [14], in assay [15], in assay [16], in assay [17] and in assay [18] was above 100 µM in each case. In addition, in assay [19], the TGI is above 100 µM.

With `C/C(=N\N=C1/C(=O)OC(c2ccccc2)=C1C(=O)c1ccccc1)c1ccc([N+](=O)[O-])cc1`, the TGI in assay [1] was 52.7 µM; in [2] it was above 100 µM; in [3], above 100 µM; in assay [4], above 100 µM; in [5], above 100 µM; in assay [6], above 100 µM. The TGI in assay [7] is above 100 µM; in assay [8] it was above 100 µM; in [9], above 100 µM; in assay [10] it was 72.6 µM; in assay [11] it was above 100 µM; in assay [12], above 100 µM. The TGI in [13] was above 100 µM; in [14] it was 75.1 µM; in assay [15] it was above 100 µM; in assay [16], 79.4 µM; in assay [17], above 100 µM; in assay [18], above 100 µM. Also, in assay [19], the TGI is above 100 µM.

As for `C[C@H](CCC(=O)O)[C@H]1CC[C@H]2[C@@H]3C(=O)C[C@@H]4C[C@H](O)CC[C@]4(C)[C@H]3C[C@H](O)[C@]12C`, the TGI in [1], in [2], in [3], in assay [4], in [5] and in assay [6] was above 100 µM each time. In addition, the TGI in assay [7], in assay [8], in assay [9], in [10], in [11] and in assay [12] was above 100 µM each time. The TGI in assay [13], in [14], in [15], in assay [16], in [17] and in assay [18] was above 100 µM each time. In assay [19], this molecule showed a TGI of 78.9 µM.

Turning to `CC1(C)[C@@H]2CC[C@@]1(C)CN(CCC[N+](C)(C)C)C2`, the TGI in assay [1], in [2], in assay [3], in assay [4], in [5] and in assay [6] was above 100 µM throughout. The TGI in assay [7], in assay [8], in assay [9], in [10], in [11] and in assay [12] was above 100 µM throughout. In addition, the TGI in assay [13], in assay [14], in assay [15], in assay [16], in assay [17] and in assay [18] was above 100 µM throughout. This molecule also showed a TGI in [19] above 100 µM.

Regarding `CC(C)(C)[Si](C)(C)OCC1OC(n2ccc(=O)[nH]c2=O)C(O[Si](C)(C)C(C)(C)C)/C1=C/C#N` (configuration not stated), the TGI in [1] is above 21.1 µM; in [2], above 100 µM; in assay [3] it was above 100 µM; in [4], above 100 µM; in assay [5] it was above 100 µM; in assay [6], above 100 µM. Besides, the TGI in [7] is above 100 µM; in assay [8] it was above 61.9 µM; in assay [9], above 42.2 µM; in assay [10], above 100 µM; in assay [11], above 71.5 µM; in [12] it was 11.9 µM. Moreover, the TGI was 98.2 µM in [13]; above 100 µM in assay [14]; above 100 µM in [15]; above 75.8 µM in assay [16]; above 100 µM in [17]; above 60.5 µM in assay [18]. Besides, in assay [19], the TGI is above 100 µM.
